What was measured:
[1] = test system: human lung cancer cells; assay: Synergy with Etoposide in killing cancer cells in vitro; type: cell-based
[2] = biological target: T1, Tyrosyl DNA Phosphodiesterase 2 (TDP2) (Homo sapiens, UniProt O95551); assay: High-throughput screening for TDP2 inhibitory activity; type: biochemical
T1 sequence (O95551 1-362): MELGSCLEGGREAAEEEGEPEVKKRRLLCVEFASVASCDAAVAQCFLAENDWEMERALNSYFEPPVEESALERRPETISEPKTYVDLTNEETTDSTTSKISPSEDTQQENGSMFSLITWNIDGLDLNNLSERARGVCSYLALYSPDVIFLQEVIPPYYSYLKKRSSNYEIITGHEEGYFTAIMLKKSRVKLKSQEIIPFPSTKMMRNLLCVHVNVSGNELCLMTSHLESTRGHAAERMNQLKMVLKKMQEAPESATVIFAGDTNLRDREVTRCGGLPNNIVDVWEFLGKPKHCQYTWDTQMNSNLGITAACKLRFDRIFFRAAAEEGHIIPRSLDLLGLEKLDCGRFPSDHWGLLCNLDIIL

[3] = test system: LPS-induced ear inflammation; assay: Anti-inflammatory efficacy in LPS-induced local ear inflammation; type: in vivo, mice; settings: treatment 30 min after LPS; DXM 5 mg/kg where loaded
Method: Explanted mouse ears were washed twice with PBS and embedded in a cryomold in O.C.T. (Tissue-Tek® O.C.T. Compound, Sakura® Finetek), and instantly frozen at −80° C. Ten μm-thick slides were obtained cutting ears block with a cryostat at −20° C. The slides were stored at −20° C. For hematoxylin and eosin (H/E) staining, slides were thawed, hydrated, washed and stained with hematoxylin and eosin (Sigma-Aldrich).
Once cryo-sections were obtained as described in the previous paragraph, immunofluorescence (IF) staining was performed as previously reported (Gelain et al., 2010). Briefly, slides were thawed and blocked with BSA 5% (Sigma-Aldrich) PBS 1× solution. After washing, they were incubated overnight at 4° C. with anti-neutrophil antibody (Alexa Fluor® 647 anti-mouse Ly-6G/Ly-6C (Gr-1) Biolegend. Excess anti-neutrophil antibody was washed out with PBS 1X. Cells nuclei were stained with DAPI. Slides were sealed with ProLong Gold antifade reagent (Life Technologies™). Images were captured with an Eclipse® Ti Inverted Fluorescent Microscope equipped with Hamamatsu Digital Camera C11440 ORCA-Flash 2.8.
Particles were administrated 30 min after LPS injection.
Explanted Mice ears were washed twice with PBS and embedded in a cryomold in O.C.T. (Tissue-Tek® O.C.T. Compound, Sakura® Finetek), and instantly frozen at −80° C. […]

Row | SMILES | synergy with Etoposide in cancer cell killing [1] | TDP2 inhibitory activity [2] | tissue architecture (H&E staining) [3]
1 | COc1cc2c(cc1OC)-c1c(OC)c(OC)cc3c1[C@H](C2)N(C)CC3 [Glaucine] | able to enhance Etoposide mediated cancer cell killing | TDP2 inhibitor | 
2 | C[C@@H]1C[C@H]2[C@@H]3CCC4=CC(=O)C=C[C@]4(C)[C@@]3(F)[C@@H](O)C[C@]2(C)[C@@]1(O)C(=O)CO [free DXM, Dexamethasone] |  |  | alteration of tissue architecture
